Experimental data published in patent US7666864B2, “Bicyclic nitroimidazole-substituted phenyl oxazolidinones” (priority 2008, dated 2010).
In brackets after ≈: the same amount, converted by molar mass.

System: M. tuberculosis (PA-resistant)
Assay: microbe, parasite or virus in culture
Type: cell-based, Mycobacterium tuberculosis
Conditions: for MIC: Mycobacterium tuberculosis

| Structure (SMILES) | MIC against PA-824 resistant strain of Mycobacterium tuberculosis H37Rv [micg/mL] | MIC [µg/mL] | activity against PA-824 resistant strain (in words) |
| --- | --- | --- | --- |
| CC(=O)NC[C@H]1CN(c2ccc(-c3cnc(O[C@@H]4COc5nc([N+](=O)[O-])cn5C4)nc3)c(F)c2)C(=O)O1 [Example 8, (S,S)—N-(3-{3-Fluoro-4-[2-(2-nitro-6,7-dihydro-5H-imidazo[2,1-b][1,3]oxazin-6-yloxy)-pyrimidin-5-yl]-phenyl}-2-oxo-oxazolidin-5-ylmethyl)-acetamide] | 0.5 | 0.5 (≈ 0.974 µM) |  |
| CC(=O)NC[C@H]1CN(c2ccc(-c3ccc(CO[C@@H]4COc5nc([N+](=O)[O-])cn5C4)cc3)c(F)c2)C(=O)O1 [Example 31, (S,S)—N-{3-[2-Fluoro-4′-(2-nitro-6,7-dihydro-5H-imidazo[2,1-b][1,3]oxazin-6-yloxymethyl)-biphenyl-4-yl]-2-oxo-oxazolidin-5-ylmethyl}-acetamide] | 1 | 1 (≈ 1.9 µM) |  |
| CC(=O)NC[C@H]1CN(c2ccc(N3CCOCC3)c(F)c2)C(=O)O1 [Linezolid, linezolid, reference compound] |  | 0.5 (≈ 1.48 µM) |  |
| O=[N+]([O-])c1cn2c(n1)OC[C@@H](OCc1ccc(OC(F)(F)F)cc1)C2 [PA-824, reference compound] |  | > 32 | loses its activity |
